Series [1] is described as follows: Inhibition of sheep brain dynamin 1 by malachite green GTPase assay. More on the design: species or system Ovis aries.
Series [2] deals with T1, Dynamin-1 (Rattus norvegicus, UniProt P21575).
T1 sequence (P21575 whole entry): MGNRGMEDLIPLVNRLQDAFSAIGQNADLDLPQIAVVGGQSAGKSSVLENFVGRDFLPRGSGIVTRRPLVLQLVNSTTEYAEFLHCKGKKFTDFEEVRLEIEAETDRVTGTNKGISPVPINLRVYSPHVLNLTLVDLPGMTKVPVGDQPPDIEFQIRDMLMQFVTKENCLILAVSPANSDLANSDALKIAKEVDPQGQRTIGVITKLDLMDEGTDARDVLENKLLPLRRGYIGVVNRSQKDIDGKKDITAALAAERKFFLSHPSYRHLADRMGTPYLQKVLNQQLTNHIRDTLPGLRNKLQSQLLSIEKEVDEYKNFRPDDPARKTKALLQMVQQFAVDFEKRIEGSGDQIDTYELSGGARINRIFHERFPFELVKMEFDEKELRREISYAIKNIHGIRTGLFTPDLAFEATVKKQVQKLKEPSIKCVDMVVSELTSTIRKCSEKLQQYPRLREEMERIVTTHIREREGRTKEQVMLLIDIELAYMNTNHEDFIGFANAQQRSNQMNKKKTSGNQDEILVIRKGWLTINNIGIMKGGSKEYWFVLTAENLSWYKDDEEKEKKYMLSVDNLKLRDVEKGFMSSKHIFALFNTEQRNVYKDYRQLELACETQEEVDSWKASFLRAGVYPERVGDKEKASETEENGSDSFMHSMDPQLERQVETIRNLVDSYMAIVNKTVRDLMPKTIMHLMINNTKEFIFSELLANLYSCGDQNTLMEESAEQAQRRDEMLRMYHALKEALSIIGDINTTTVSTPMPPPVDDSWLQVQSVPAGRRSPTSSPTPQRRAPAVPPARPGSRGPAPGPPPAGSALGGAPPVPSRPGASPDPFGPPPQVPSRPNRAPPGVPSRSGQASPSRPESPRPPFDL
The experiment in a line: Inhibition of dynamin 1-mediated synaptic vesicle endocytosis in Sprague-Dawley rat synaptosomes assessed as uptake of FM 4-64 dye after 30 mins by automated acquisition and analysis system. It counts as subcellular, Brain.

The subject of series [3] is U2OS. The experiment in a line: Cytotoxicity against human U2OS cells assessed as change in cell morphology after 30 mins. It counts as cell-based. Particulars: 0.5 h.
Series [4] is filed under the species Ovis aries. Briefly: Inhibition of sheep brain dynamin 1 at 100 uM by malachite green GTPase assay.
The species named for series [5] is Ovis aries. The experiment in a line: Inhibition of sheep brain dynamin 1 at 300 uM by malachite green GTPase assay.

Consider 31 molecules from ChEMBL document CHEMBL1157798, “Iminochromene inhibitors of dynamins I and II GTPase activity and endocytosis” (J Med Chem, 2010).

Usually IC50 stands for the concentration that gives 50% inhibition. Broadly, the inhibition is the drop in the measured response relative to a control, in per cent.

Calls of active or inactive are those of the source. The rule behind the calls is not given here. Some results are limits rather than exact numbers.

Consider `N=c1oc2c(O)c(O)ccc2cc1C(=O)NCCCCNC(=O)c1cc2ccc(O)c(O)c2oc1=N`, for which, in series [1], 4.3 µM corresponded to half-maximal inhibition (IC50).

For the molecule `N=c1oc2c(O)c(O)ccc2cc1C(=O)NCCCCCCNC(=O)c1cc2ccc(O)c(O)c2oc1=N`, in series [1], it took 70 µM to reach half-maximal inhibition (IC50).

Molecule `N#C/C(=C\c1ccc(O)c(O)c1)C(=O)NCCCNC(=O)/C(C#N)=C/c1ccc(O)c(O)c1` yielded an IC50 in series [1] of 1.7 µM.

As for `N=c1oc2c(O)c(O)ccc2cc1C(=O)NCCNC(=O)c1cc2ccc(O)c(O)c2oc1=N`, the figures for the IC50 in series [1] and in series [2] were 0.33 µM and “Not Active”, respectively.

`N=c1oc2c(O)cccc2cc1C(=O)NCCCNC(=O)c1cc2cccc(O)c2oc1=N`: the results for the concentration for half-maximal inhibition (IC50) in series [1] and in series [2] were 36.6 µM and “Not Active”, respectively. Moreover, in series [3], the Activity entry is “Non-toxic”.

In series [1], `N#C/C(=C\c1ccccc1)C(=O)NCCCNC(=O)/C(C#N)=C/c1ccc(O)c(O)c1` yielded a 50% inhibitory concentration (IC50) of 146 µM.

In series [1], `N=c1oc2cc(O)c(O)cc2cc1C(=O)NCCCCCCNC(=O)c1cc2cc(O)c(O)cc2oc1=N` showed an IC50 of 82 µM.

As to `N=c1oc2c(O)cccc2cc1C(=O)NCCCCNC(=O)c1cc2cccc(O)c2oc1=N`, the inhibition in series [4] was less than 50%.

`N=c1oc2cc(O)c(O)cc2cc1C(=O)NCCNC(=O)c1cc2cc(O)c(O)cc2oc1=N` showed an IC50 in series [1] of 6 µM.

As to `N=c1oc2ccccc2cc1C(=O)NCCCCCNC(=O)c1cc2ccccc2oc1=N`, in series [4], the inhibition was less than 50%. In series [1], the IC50 is more than 300 µM.

On to `N#C/C(=C\c1ccc(O)cc1)C(=O)NCCCNC(=O)/C(C#N)=C/c1ccc(O)c(O)c1`, for which, in series [1], the IC50 worked out at 51 µM.

In turn, `N=c1oc2cc(O)ccc2cc1C(=O)NCCCCCNC(=O)c1cc2ccc(O)cc2oc1=N` registered an inhibition in series [4] of less than 50%.

Turning to `N#C/C(=C\c1ccc(N=[N+]=[N-])cc1)C(=O)NCCCNC(=O)/C(C#N)=C/c1ccc(O)c(O)c1`, half-maximal inhibition in series [1] (IC50) required 6.4 µM.

`N#C/C(=C\c1ccc(C2(C(F)(F)F)N=N2)cc1)C(=O)NCCCNC(=O)/C(C#N)=C/c1ccc(O)c(O)c1` had an IC50 in series [1] of 36 µM.

As for `N=c1oc2c(O)cccc2cc1C(=O)NCCCCCNC(=O)c1cc2cccc(O)c2oc1=N`, the inhibition in series [4] was less than 50%.

In series [4], `N=c1oc2ccccc2cc1C(=O)NCCCCNC(=O)c1cc2ccccc2oc1=N` displayed an inhibition of less than 50%. In series [1], this molecule showed a half-inhibitory concentration (IC50) of more than 300 µM.

On to `N=c1oc2c(O)c(O)ccc2cc1C(=O)NCCCCCNC(=O)c1cc2ccc(O)c(O)c2oc1=N`, for which the half-inhibitory concentration (IC50) in series [1] was found to be 19 µM.

The molecule `N=c1oc2c(O)cccc2cc1C(=O)NCCNC(=O)c1cc2cccc(O)c2oc1=N` gave an inhibition in series [4] of less than 50%.

As for `N=c1oc2cc(O)ccc2cc1C(=O)NCCCCNC(=O)c1cc2ccc(O)cc2oc1=N`, in series [4], the inhibition is less than 50%.

In the case of `N=c1oc2c(O)c(O)ccc2cc1C(=O)NCCCNC(=O)c1cc2ccc(O)c(O)c2oc1=N`, the IC50 in series [1] was determined as 0.45 µM; in series [2] (read-out: IC50), 99.5 µM. For the same molecule, the Activity result in series [3] is reported as “Non-toxic”.

Consider `N=c1oc2cc(O)c(O)cc2cc1C(=O)NCCCCNC(=O)c1cc2cc(O)c(O)cc2oc1=N`, for which the IC50 in series [1] amounted to 3.2 µM.

Take `N=c1oc2cc(O)ccc2cc1C(=O)NCCCCCCNC(=O)c1cc2ccc(O)cc2oc1=N`: the inhibition in series [4] is less than 50%.

Molecule `N=c1oc2cc(O)c(O)cc2cc1C(=O)NCCCCCNC(=O)c1cc2cc(O)c(O)cc2oc1=N` yielded an IC50 in series [1] of 17 µM.

In series [4], `N=c1oc2c(O)cccc2cc1C(=O)NCCCCCCNC(=O)c1cc2cccc(O)c2oc1=N` yielded an inhibition of less than 50%.

`N=c1oc2ccccc2cc1C(=O)NCCCNC(=O)c1cc2ccccc2oc1=N` registered an inhibition in series [4] of less than 50%. Also, the half-inhibitory concentration (IC50) in series [1] was more than 300 µM.

In the case of `N=c1oc2cc(O)c(O)cc2cc1C(=O)NCCCNC(=O)c1cc2cc(O)c(O)cc2oc1=N`, the values for the IC50 in series [1] and in series [2] (read-out: IC50) were 0.26 µM and 40.4 µM, respectively. Further, the Activity result in series [3] is reported as “Non-toxic”.

In series [4], `N=c1oc2ccccc2cc1C(=O)NCCNC(=O)c1cc2ccccc2oc1=N` registered an inhibition of less than 50%. This molecule also showed a 50% inhibitory concentration (IC50) in series [1] of more than 300 µM.

With `N=c1oc2cc(O)ccc2cc1C(=O)NCCCNC(=O)c1cc2ccc(O)cc2oc1=N`, the figures for the concentration for half-maximal inhibition (IC50) in series [1] and in series [2] (read-out: IC50) were 17.3 µM and 66.1 µM, respectively.

Consider `N=c1oc2cc(O)ccc2cc1C(=O)NCCNC(=O)c1cc2ccc(O)cc2oc1=N`, for which the 50% inhibitory concentration (IC50) in series [1] stood at 100 µM. Besides, the inhibition result in series [5] was “inactive”.

`N=c1oc2ccccc2cc1C(=O)NCCCCCCNC(=O)c1cc2ccccc2oc1=N` returned an inhibition in series [4] of less than 50%. Further, in series [1], the IC50 was more than 300 µM.

In series [1], `COc1ccc(/C=C(\C#N)C(=O)NCCCNC(=O)/C(C#N)=C/c2ccc(O)c(O)c2)cc1OC` registered an IC50 of 44 µM.
